Among the data in PubChem BioAssay AID2060487 (Molecular Pharmacology Branch, DTP, NCI, 2025) are viability, T/C and IC50 values, retold here.

For this experiment, the system named is 997537-175-T-J1-PDC complex spheroid viability. The experiment can be described thus: Anticancer human tumor 997537-175-T-J1-PDC patient-derived colon adenocarcinoma cell line growth inhibition [GQUAD]. The following applies: for viability, T/C: stronger effect = lower value; for IC50: curve of compound. An excerpt:
DNA G-quadruplex Stabilizer Agents in Combinations in Complex Spheroids
A high-throughput screen of multi-cell type tumor spheroids was designed to identify active combinations of DNA G-quadruplex stabilizer agents and targeted small molecules. Complex spheroids include a stromal component modeled by human endothelial cells (HUVEC) and fibroblasts modeled by human mesenchymal stem cells (MSCs). The concentration ranges selected for each drug and investigational agent were based upon clinically achievable concentrations if the clinical Cmax of the agent was known.
Compounds. The drugs and investigational agents: pidnarulex (CX-5461; NSC782164), APTO-253 (NSC789042), BRACO-19 (NSC847499), peposertib (NSC802822), ceralasertib (NSC780249), elimusertib (NSC800525), camonsertib (NSC841442), AZD-1390 (NSC803789), olaparib (NSC753686), talazoparib (NSC767125), ART-558 (NSC835418), sotorasib (NSC818433), MRTX-1133 (NSC836407), SN-38 (NSC673596), topotecan (NSC609699), etoposide (NSC141540), doxorubicin (NSC123127), gemcitabine (NSC613327), 5-fluorouracil (NSC19893), paclitaxel (NSC125973), vemurafenib (NSC761431), panobinostat (NSC761190), R-306465 (JNJ-16241199; NSC773264), adavosertib (NSC754352), TP-3654 (NSC805149), carboplatin (NSC241240), KSQ-4279 (NSC840948), and staurosporine (NSC755774) were obtained from the National Cancer Institute (NCI) Developmental Therapeutics Program Chemical Repository (34). The FDA-approved anticancer drug set is available from the NCI Developmental Therapeutics Program. […] The stock solutions were prepared in dimethyl sulfoxide (DMSO, Sigma-Aldrich, St. Louis, MO, cat. D2650) at 800-fold the tested concentration and stored at -70 degrees C prior to their use. All drugs and investigational agents were tested over a range starting from a high concentration at or near the clinical Cmax and decreasing in half-log increments. If the clinical Cmax for an agent had not been determined, the highest concentration tested was 10 microM.
2.3 Cell Culture. All cells were maintained in an incubator at 37 degrees C and 5% CO2 with 95% humidity. The PDC lines were cultured according to standard operating procedures established by the NCI PDMR. All PDCs were thawed and cultured in Matrigel-coated flasks prepared with a working solution of 1X Ham's F-12 nutrient mix, without supplementation (Invitrogen, cat. 11765054), 100 U/mL penicillin-streptomycin (Invitrogen, cat. 15140122), and 2.5% Matrigel (Corning Inc., cat. 354248) for the first three passages. The 857933-349-R-J2-PDC line was cultured in 6C/Colon 1B media, which includes advanced DMEM/F-12 (Thermo Fisher Scientific, cat. 12634028), 10 mM HEPES (Thermo Fisher Scientific, cat. 15630080), 1X GlutaMAX supplement (Thermo Fisher Scientific, cat. 35050061), 0.1 mg/mL primocin (InvivoGen, cat. ant-pm-2), 10% defined fetal bovine serum, heat inactivated (HyClone Laboratories Inc., cat. SH30070.03HI), 50% L-WRN conditioned media (ATCC, cat. CRL-3276), 1.25 mM N-Acetyl-L-cysteine (Sigma-Aldrich, cat. A9165), 10 mM nicotinamide (Sigma-Aldrich, cat. N0636), 1X B-27 supplement (Thermo Fisher Scientific, cat. 17504044), 1X N-2 supplement (Thermo Fisher Scientific, cat. 17502048), 10 microM Y-27632 dihydrochloride (Tocris Bioscience, cat. 1254), and 50 ng/mL human EGF recombinant protein (Thermo Fisher Scientific, cat. PHG0311). The 485176-168-R4-J1-PDC line was cultured in Panc media, which includes all 6C/Colon 1B media components plus 100 ng/mL human FGF-10 (Thermo Fisher Scientific, cat. 100-26), 500 nM SB-431542 (Selleckchem, cat. S1067), and gastrin (Tocris, cat. 3006).
[…]

“And” between values parts separate entries of the source, which are not always exact repeats. Equal entries are not always repeated. A value given as a limit tells only on which side of the number the result lay.
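Note: spheroids exposed to the agents for 7 days.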

Take `CCc1c2c(nc3ccc(O)cc13)-c1cc3c(c(=O)n1C2)COC(=O)[C@]3(O)CC`: the concentration for half-maximal inhibition (IC50) is 0.0105 µM and 0.0174 µM and 0.00978 µM. The viability, T/C (compound 0.000999 µM) is 83.3% and 102% and 95.3%. Also, where the note is “compound 0.00316 µM”, the viability, T/C is 63.9% and 92% and 82.8%. Further, the viability, T/C (compound 0.00999 µM) is 52.7% and 68.5% and 49%. For the same compound, for the setting “compound 0.0316 µM”, the viability, T/C is 34.5% and 31.5% and 19.4%. In addition, the viability, T/C (compound 0.0999 µM) was 6.34% and 5.01% and 4.92%. Also, the viability, T/C (compound 0.316 µM) was 2.98% and 3.42% and 6.93%.

With `COc1cc(C2c3cc4c(cc3C(OC3OC5COC(C)OC5C(O)C3O)C3COC(=O)C23)OCO4)cc(OC)c1O` (stereo unspecified), the IC50 was over 10 µM. The viability, T/C (compound 0.0316 µM) is 109% and 95.5% and 112%. Besides, the viability, T/C (compound 0.1 µM) is 89.4% and 75.1% and 76.9%. For the same compound, the viability, T/C (compound 0.316 µM) was 77.2% and 92.8% and 91.9%. The viability, T/C (compound 1 µM) was 93.1% and 76.8% and 89%. The viability, T/C (compound 3.16 µM) is 82.3% and 81.8% and 82.2%. Moreover, under “compound 10 µM”, the viability, T/C is 60.9% and 54.7% and 74.6%.

For the compound `COc1ccc([C@@H](O)c2cc(-c3ncnc4cc(N5CCOCC5)ccc34)c(F)cc2Cl)nn1`, the IC50 is over 10 µM. For the same compound, the viability, T/C (compound 0.0316 µM) was 92.9% and 91.3% and 86%. For the same compound, for the setting “compound 0.1 µM”, the viability, T/C is 90.2% and 89.7% and 104%. Besides, the viability, T/C (compound 0.316 µM) was 94.4% and 88.5% and 89.3%. Besides, under “compound 1 µM”, the viability, T/C was 101% and 83.3% and 91.5%. Moreover, the viability, T/C (compound 3.16 µM) is 82.6% and 73.8% and 58.5%. Also, the viability, T/C (compound 10 µM) was 65.1% and 78.9% and 67.7%.

On to `COc1cccc2c1C(=O)c1c(O)c3c(c(O)c1C2=O)CC(O)(C(=O)CO)CC3OC1CC(N)C(O)C(C)O1` (stereo unspecified), for which the IC50 was > 10 µM and 7.16 µM and 5.5 µM. Also, where the note is “compound 0.0316 µM”, the viability, T/C is 98.9% and 107% and 104%. Further, the viability, T/C (compound 0.1 µM) is 95.5% and 101% and 75.2%. Moreover, the viability, T/C (compound 0.316 µM) is 92.8% and 91.6% and 89.9%. For the same compound, the viability, T/C (compound 1 µM) was 99.9% and 88.3% and 107%. Also, where the note is “compound 3.16 µM”, the viability, T/C is 76.1% and 72.2% and 74.3%. The viability, T/C (compound 10 µM) is 51.4% and 40.7% and 23.7%.

Take `Cc1[nH]c2ccccc2c1CCNCc1ccc(/C=C/C(=O)NO)cc1`: the concentration for half-maximal inhibition (IC50) is > 0.316 µM and 0.316 µM. The viability, T/C (compound 0.000999 µM) is 93.4% and 96.3% and 94.4%. Further, the viability, T/C (compound 0.00316 µM) is 101% and 94.2% and 106%. Further, under “compound 0.00999 µM”, the viability, T/C is 110% and 59.3% and 109%. Also, for the setting “compound 0.0316 µM”, the viability, T/C is 105% and 87.4% and 93.1%. The viability, T/C (compound 0.0999 µM) was 100% and 86.6% and 92.4%. Further, the viability, T/C (compound 0.316 µM) was 87.6% and 50% and 52%.

Consider `Cc1cccc(N(C)C(=O)C2C(O)CCN2c2nc(C)cc(C(F)(F)F)c2C#N)c1` (stereo unspecified), for which the half-maximal inhibitory concentration (IC50) was over 10 µM. The viability, T/C (compound 0.0316 µM) is 107% and 89.4% and 99.3%. In addition, where the note is “compound 0.1 µM”, the viability, T/C was 97.1% and 94.8% and 91.9%. For the same compound, the viability, T/C (compound 0.316 µM) is 97% and 109% and 98%. Further, under “compound 1 µM”, the viability, T/C was 88.5% and 83.3% and 100%. For the same compound, under “compound 3.16 µM”, the viability, T/C was 60.2% and 82.8% and 85.9%. The viability, T/C (compound 10 µM) was 89.4% and 74.4% and 90.4%.

As for `Cn1ncnc1[C@H]1c2n[nH]c(=O)c3cc(F)cc(c23)N[C@@H]1c1ccc(F)cc1`, the IC50 is over 0.316 µM. In addition, for the setting “compound 0.000999 µM”, the viability, T/C is 91.9% and 91.2% and 104%. For the same compound, the viability, T/C (compound 0.00316 µM) is 89.7% and 92.9% and 86%. Further, where the note is “compound 0.00999 µM”, the viability, T/C is 107% and 90.8% and 92.9%. Besides, under “compound 0.0316 µM”, the viability, T/C is 72.1% and 87.1% and 89.7%. Where the note is “compound 0.0999 µM”, the viability, T/C is 90.8% and 64% and 84%. Where the note is “compound 0.316 µM”, the viability, T/C is 85.8% and 73.8% and 89%.

As to `Nc1ccn(C2OC(CO)C(O)C2(F)F)c(=O)n1` (stereo unspecified), the IC50 was over 10 µM. In addition, for the setting “compound 0.0316 µM”, the viability, T/C was 103% (2×) and 99.3%. The viability, T/C (compound 0.1 µM) was 92.3% and 96% and 108%. Further, the viability, T/C (compound 0.316 µM) was 93.5% and 99.5% and 101%. Moreover, the viability, T/C (compound 1 µM) was 91.9% and 64.2% and 92.5%. The viability, T/C (compound 3.16 µM) is 88.4% and 55.3% and 62%. Also, under “compound 10 µM”, the viability, T/C was 85.4% and 64.9% and 84.9%.

As to `O=C(NO)c1cnc(N2CCN(S(=O)(=O)c3ccc4ccccc4c3)CC2)nc1`, the viability, T/C is 65.3% and 97.2% and 113% (compound 0.0316 µM); 24.7% and 95.1% and 86.5% (compound 0.1 µM); 47.4% and 101% and 105% (compound 0.316 µM); 41.2% and 82% and 69% (compound 1 µM); 42.8% and 22.4% and 27.3% (compound 3.16 µM); 23.3% and 0.34% and 0.28% (compound 10 µM).

`O=C(c1cc(Cc2n[nH]c(=O)c3ccccc23)ccc1F)N1CCN(C(=O)C2CC2)CC1`: the IC50 is over 10 µM. Besides, for the setting “compound 0.0316 µM”, the viability, T/C was 106% and 94.3% and 90.2%. Moreover, the viability, T/C (compound 0.1 µM) was 88% and 96.7% and 102%. Where the note is “compound 0.316 µM”, the viability, T/C was 94.6% and 102% and 107%. In addition, the viability, T/C (compound 1 µM) is 104% and 92.4% and 103%. Also, the viability, T/C (compound 3.16 µM) was 102% and 64.4% and 79.6%. Also, the viability, T/C (compound 10 µM) is 85.2% and 87.2% and 96.7%.

`O=c1[nH]cc(F)c(=O)[nH]1`: the IC50 was over 10 µM. The viability, T/C (compound 0.0316 µM) was 108% and 85.2% and 99.8%. In addition, the viability, T/C (compound 0.1 µM) was 104% and 108% and 86.2%. For the same compound, the viability, T/C (compound 0.316 µM) is 96.1% and 89% and 98.1%. In addition, the viability, T/C (compound 1 µM) is 95.1% and 85.5% and 92.2%. In addition, the viability, T/C (compound 3.16 µM) was 101% and 70.3% and 82.5%. Moreover, the viability, T/C (compound 10 µM) was 83.9% and 87.2% and 93.6%.

One may read the viability, T/C as the ratio of treated to control. The IC50 is the concentration at which inhibition is half-maximal.
